Reference: the NIST ThermoML archive (doi:10.1016/j.fluid.2014.04.019)
Numbers after ± are expanded uncertainties.

Legend:
[1] = 101 kPa, Liquid
[2] = xn = mol fraction of the nth substance listed; settings: 101 kPa, Liquid, x1 = 1

**Q.** What does the source list for OCCOCCO [diethylene glycol]?
**A.** kinematic viscosity ([1]; 298.15 K): 2.76e-05 ± 1.2e-06 m2/s; mass density ([1]; 298.15 K): 1113 ± 2.9 kg/m3; kinematic viscosity ([1]; 303.15 K): 2.13e-05 ± 9e-07 m2/s; mass density ([1]; 303.15 K): 1109.2 ± 3 kg/m3; kinematic viscosity ([1]; 308.15 K): 1.68e-05 ± 7e-07 m2/s; mass density ([1]; 308.15 K): 1106.1 ± 3.1 kg/m3; kinematic viscosity ([1]; 313.15 K): 1.45e-05 ± 6e-07 m2/s; mass density ([1]; 313.15 K): 1103 ± 3.2 kg/m3; kinematic viscosity ([1]; 318.15 K): 1.12e-05 ± 5e-07 m2/s; mass density ([1]; 318.15 K): 1099.3 ± 3.3 kg/m3

**Q.** What does the source list for CN(C)C=O [dimethylformamide] + OCCOCCO?
**A.** kinematic viscosity ([2]; 298.15 K): 8.15e-07 ± 5.2e-08 m2/s; mass density ([2]; 298.15 K): 943.9 ± 2.4 kg/m3; kinematic viscosity ([2]; 303.15 K): 7.6e-07 ± 4.9e-08 m2/s; mass density ([2]; 303.15 K): 939.6 ± 2.5 kg/m3; kinematic viscosity ([2]; 308.15 K): 7.22e-07 ± 4.7e-08 m2/s; mass density ([2]; 308.15 K): 934.2 ± 2.6 kg/m3; kinematic viscosity ([2]; 313.15 K): 6.75e-07 ± 4.4e-08 m2/s; mass density ([2]; 313.15 K): 929.9 ± 2.7 kg/m3; kinematic viscosity ([2]; 318.15 K): 6.38e-07 ± 4.2e-08 m2/s; mass density ([2]; 318.15 K): 924.7 ± 2.8 kg/m3

**Q.** With CN(C)C=O [dimethylformamide] as the molecule, how does the kinematic viscosity ([1]; 298.15 K) read?
**A.** 8.15e-07 ± 5.2e-08 m2/s

**Q.** And the mass density ([1]; 298.15 K)?
**A.** 943.9 ± 2.4 kg/m3

**Q.** What about the kinematic viscosity ([1]; 303.15 K) of the same molecule?
**A.** 7.6e-07 ± 4.9e-08 m2/s

**Q.** And the mass density ([1]; 303.15 K)?
**A.** 939.6 ± 2.5 kg/m3

**Q.** And the kinematic viscosity ([1]; 308.15 K)?
**A.** 7.22e-07 ± 4.7e-08 m2/s

**Q.** What about the mass density ([1]; 308.15 K) of the same molecule?
**A.** 934.2 ± 2.6 kg/m3

**Q.** What about the kinematic viscosity ([1]; 313.15 K) of the same molecule?
**A.** 6.75e-07 ± 4.4e-08 m2/s

**Q.** And the mass density ([1]; 313.15 K)?
**A.** 929.9 ± 2.7 kg/m3

**Q.** What about the kinematic viscosity ([1]; 318.15 K) of the same molecule?
**A.** 6.38e-07 ± 4.2e-08 m2/s

**Q.** What about the mass density ([1]; 318.15 K) of the same molecule?
**A.** 924.7 ± 2.8 kg/m3
